This note sets out measurements from patent publication US20230219965A1 (KSQ Therapeutics, Inc., priority 2020, published 2023).

Read-outs that look alike come from different tables or passages of the source.

The target in one data set is USP1/UAF1 enzyme (Homo sapiens, UniProt O94782). Briefly: USP1/UAF1 deubiquitination assay (ubiquitin-rhodamine 110 substrate). The settings on record: read-out: USP1 IC50 (Ub-Rho). It counts as biochemical. Put shortly:
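0.05 nM USP1/UAF1 was preincubated 10 min with compounds (dose response from 10 μM) in 50 mM Tris-HCl pH 7.8, 0.5 mM EDTA, 0.01% BSA, 1 mM DTT, 0.01% Tween-20. 150 nM ubiquitin-rhodamine 110 started the reaction, read kinetically 30 min at Ex480/Em540; IC50 by four-parameter fit versus no-enzyme and DMSO controls.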

The nature of data set [1]: Liver microsomal metabolic stability, human liver microsomes (HLM). The note with it: human, liver microsomes. In general terms: Microsomes from liver hold many membrane-bound enzymes, among them those of drug oxidation.
The subject of data set [2] is Ub-PCNA levels in the nucleus of ES2 cells (USP1 activity). Briefly: ES2 Ub-PCNA immunofluorescence (IF) assay. The note with it: Homo sapiens, ES-2; ES2 cells, 3 hours, Ub-PCNA immunofluorescence; read-out: USP1 IC50 (Ub-PCNA). Type of data set: cell-based. Put shortly:
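Cells plated overnight, then compound-treated for 3 h at 37° C (0.3% DMSO final), methanol-fixed and stained with anti-Ub-PCNA plus DAPI. Per-nucleus Ub-PCNA intensity imaged; cells above the 95% cutoff of untreated wells counted as positive, and percent positive cells used to derive AC50.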

The nature of data set [3]: Liver microsomal metabolic stability, rat liver microsomes (RLM). The settings on record: rat, liver microsomes, t1/2 (min) in RLM, 1 μM compound, 1 mg/mL microsomes, NADPH.
Data set [4] can be described thus: ADME solubility determination in PBS at pH 2.0 and pH 7.4. Type of data set: physicochemical. The settings on record: phosphate buffered saline, 25 °C, thermodynamic from solid. Put shortly: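 Dried 10 mM DMSO stock residues taken up in PBS pH 7.4 or pH 2.0, shaken 24 h at 25° C. After centrifugation, supernatant quantified by LC-MS/MS against a standard of known concentration, with a dilution factor applied.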

Where [5] appears, read: pH 2, aqueous buffer, PBS pH 2.0, 25° C., read-out: Solubility at pH 2.0.
The mark [6] stands for this setting: pH 7.4, aqueous buffer, PBS pH 7.4, 25° C., read-out: Solubility at pH 7.4.

Chain of USP1/UAF1 enzyme (O94782 whole entry): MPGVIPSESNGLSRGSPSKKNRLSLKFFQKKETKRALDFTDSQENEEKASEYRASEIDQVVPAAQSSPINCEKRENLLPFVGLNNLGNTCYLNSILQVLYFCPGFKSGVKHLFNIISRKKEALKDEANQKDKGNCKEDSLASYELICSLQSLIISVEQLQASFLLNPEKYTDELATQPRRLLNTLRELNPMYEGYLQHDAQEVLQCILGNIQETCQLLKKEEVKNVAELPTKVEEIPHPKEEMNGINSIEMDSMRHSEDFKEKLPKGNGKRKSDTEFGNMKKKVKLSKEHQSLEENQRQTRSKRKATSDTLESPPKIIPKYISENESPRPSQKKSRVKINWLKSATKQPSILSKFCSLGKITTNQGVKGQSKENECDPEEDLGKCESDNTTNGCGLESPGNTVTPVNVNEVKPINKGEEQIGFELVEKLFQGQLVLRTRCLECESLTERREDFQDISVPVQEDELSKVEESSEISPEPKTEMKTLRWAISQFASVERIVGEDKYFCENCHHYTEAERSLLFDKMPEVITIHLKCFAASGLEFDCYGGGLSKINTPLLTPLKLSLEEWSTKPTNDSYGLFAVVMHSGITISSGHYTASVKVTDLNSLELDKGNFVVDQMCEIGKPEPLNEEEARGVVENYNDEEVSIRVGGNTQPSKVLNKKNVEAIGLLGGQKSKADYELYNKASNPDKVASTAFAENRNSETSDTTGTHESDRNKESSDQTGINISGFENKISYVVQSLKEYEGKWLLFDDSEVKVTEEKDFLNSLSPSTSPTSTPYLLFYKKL
Chain of USP1/UAF1 enzyme (Q8TAF3 whole entry partner): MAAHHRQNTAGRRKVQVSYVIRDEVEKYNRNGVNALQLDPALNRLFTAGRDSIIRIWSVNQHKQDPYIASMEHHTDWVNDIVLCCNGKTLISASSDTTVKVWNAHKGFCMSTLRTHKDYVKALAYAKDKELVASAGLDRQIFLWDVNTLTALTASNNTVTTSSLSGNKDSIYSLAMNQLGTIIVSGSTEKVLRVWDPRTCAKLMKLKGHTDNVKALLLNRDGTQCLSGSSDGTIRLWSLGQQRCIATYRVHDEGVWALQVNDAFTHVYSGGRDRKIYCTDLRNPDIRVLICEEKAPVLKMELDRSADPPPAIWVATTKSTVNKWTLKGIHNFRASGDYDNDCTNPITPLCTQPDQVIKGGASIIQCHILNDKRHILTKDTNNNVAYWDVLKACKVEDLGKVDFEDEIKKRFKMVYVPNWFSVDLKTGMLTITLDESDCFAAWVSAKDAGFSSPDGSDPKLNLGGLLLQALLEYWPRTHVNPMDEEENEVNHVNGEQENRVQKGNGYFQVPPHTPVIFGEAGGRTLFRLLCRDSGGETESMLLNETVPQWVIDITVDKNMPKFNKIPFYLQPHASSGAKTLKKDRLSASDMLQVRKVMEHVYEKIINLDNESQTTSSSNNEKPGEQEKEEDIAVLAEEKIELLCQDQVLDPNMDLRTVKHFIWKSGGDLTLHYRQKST

For orientation: IC50 means the midpoint of a concentration-inhibition curve. One may read the half-life as the time in which the quantity being followed falls by half. The low end stands for fast loss, the high end for slow loss. In general, solubility refers to how much of the substance goes into solution per volume. Regarding `CCn1cc(C(F)(F)F)nc1-c1ccc(CN2C(=O)C(C)Cn3nc(-c4c(OC(F)F)ncnc4C4CC4)nc32)cc1F` (stereo not drawn) [Example 351, 2-(4-cyclopropyl-6-(difluoromethoxy)pyrimidin-5-yl)-4-(4-(1-ethyl-4-(trifluoromethyl)-1H-imidazol-2-yl)-3-fluorobenzyl)-6-methyl-6,7-dihydro-[1,2,4]triazolo[1,5-a]pyrimidin-5(4H)-one], the IC50 (on USP1/UAF1 enzyme; in data set [2]) was below 100 nM throughout. Moreover, the half-life at 1 μM in data set [1] and in data set [3] was above 25 min in each case. Besides, the solubility at 24 h in data set [4] (setting [5]) and in data set [4] (setting [6]) was below 10 µM in each case.
Turning to `COc1ncnc(C2CC2)c1-c1nc2n(n1)CCC(=O)N2[C@@H](C)c1ccc(-n2nc(C(F)(F)F)cc2C)c(F)c1` [Example 203], the half-inhibitory concentration (IC50) (on USP1/UAF1 enzyme; in data set [2]) was 100 to 500 nM throughout. The half-life at 1 μM in data set [1] and in data set [3] was above 25 min throughout. In addition, the solubility at 24 h in data set [4] (setting [5]) and in data set [4] (setting [6]) was at least 10 µM in each case.
Consider `COc1ccc(C)nc1-c1ccc(CN2C(=O)CCn3nc(-c4c(Cl)cnn4C(C)C)cc32)cc1Cl` [Example 309], for which the IC50 is below 100 nM on USP1/UAF1 enzyme and 100 to 500 nM in data set [2]. Further, the half-life at 1 μM in data set [1] and in data set [3] was below 25 min each time. For the same compound, the solubility at 24 h in data set [4] (setting [5]) was at least 10 µM; in data set [4] (setting [6]), below 10 µM.
